Legend:
Homo sapiens [1] = species: Homo sapiens; assay: Selectivity ratio of IC50 for inhibition of LRRK2 G2019S mutant (unknown origin) to IC50 for inhibition of TTK (unknown origin)
[2] = target: Muscarinic acetylcholine receptor M3 (Homo sapiens) (UniProt P20309); assay: Inhibition of muscarinic M3 receptor (unknown origin) at 10 uM relative to control
[3] = Inhibition of KNL1 autophosphorylation at T943 residue in human CAL-51 cells measured after 1 hr by Western blot analysis; type: cell-based; conditions: CAL-51, 1 h
CAL-51 = assay: Antiproliferative activity against human CAL-51 cells assessed as inhibition of cell proliferation measured after 3 days by Cell Titer-Glo luminescence based assay; type: functional; conditions: CAL-51, 72 h
[4] = target: Testis-specific serine/threonine-protein kinase 2 (Homo sapiens) (UniProt Q96PF2); assay: Inhibition of TSSK2 (unknown origin) at 3 uM by Z-lyte assay relative to control
[5] = target: T1, Dual specificity protein kinase TTK (Homo sapiens, UniProt P33981); assay: Inhibition of TTK autophosphorylation at T686 residue in human CAL-51 cells measured after 1 hr by Western blot analysis; type: cell-based
T1 sequence (P33981 whole entry): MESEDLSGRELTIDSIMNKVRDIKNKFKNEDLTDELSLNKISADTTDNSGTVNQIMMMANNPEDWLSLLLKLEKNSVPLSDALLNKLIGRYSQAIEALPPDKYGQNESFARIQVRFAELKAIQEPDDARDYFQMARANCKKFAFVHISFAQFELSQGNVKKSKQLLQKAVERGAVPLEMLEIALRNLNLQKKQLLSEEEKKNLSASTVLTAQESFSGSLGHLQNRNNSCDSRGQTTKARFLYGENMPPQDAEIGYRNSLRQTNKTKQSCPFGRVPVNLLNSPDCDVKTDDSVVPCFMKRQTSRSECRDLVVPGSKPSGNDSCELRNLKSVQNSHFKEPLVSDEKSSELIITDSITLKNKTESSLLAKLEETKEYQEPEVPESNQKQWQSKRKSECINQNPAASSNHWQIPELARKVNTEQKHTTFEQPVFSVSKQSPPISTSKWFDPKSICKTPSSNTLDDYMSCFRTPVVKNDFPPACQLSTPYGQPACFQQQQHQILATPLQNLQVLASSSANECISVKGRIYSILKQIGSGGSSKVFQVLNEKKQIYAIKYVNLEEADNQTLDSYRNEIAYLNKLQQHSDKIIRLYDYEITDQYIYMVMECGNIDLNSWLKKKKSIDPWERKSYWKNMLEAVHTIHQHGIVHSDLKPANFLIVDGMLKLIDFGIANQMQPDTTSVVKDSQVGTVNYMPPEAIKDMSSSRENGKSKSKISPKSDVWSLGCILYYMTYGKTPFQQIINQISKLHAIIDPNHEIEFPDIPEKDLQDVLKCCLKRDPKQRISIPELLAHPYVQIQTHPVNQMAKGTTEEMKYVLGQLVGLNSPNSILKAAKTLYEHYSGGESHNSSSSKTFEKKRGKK

Homo sapiens [6] = species: Homo sapiens; assay: Selectivity ratio of IC50 for inhibition of JNK1 (unknown origin) to IC50 for inhibition of TTK (unknown origin)
[7] = target: Mitogen-activated protein kinase 8 (Homo sapiens, UniProt P45983); assay: Inhibition of JNK1 (unknown origin) at 3 uM by Z-lyte assay relative to control
[8] = Volume of distribution at steady state in mouse at 2 mg/kg, iv; type: ADME, organism-based; conditions: in vivo, read-out: Vdss
[9] = Antitumor activity against human CAL-51 cells xenografted in CB17-SCID mouse assessed as tumor growth inhibition at 30 to 50 mg/kg, iv administered once per week for 16 days relative to control; type: functional; conditions: dose 30-50 mg/kg, time 16 day
[10] = target: Muscarinic acetylcholine receptor M1 (Homo sapiens) (UniProt P11229); assay: Inhibition of muscarinic M1 receptor (unknown origin) at 10 uM relative to control
Homo sapiens [11] = species: Homo sapiens; assay: Selectivity ratio of IC50 for inhibition of N1-SRC (unknown origin) to IC50 for inhibition of TTK (unknown origin)
[12] = target: Serine/threonine-protein kinase Chk2 (Homo sapiens, UniProt O96017); assay: Inhibition of CHK2 (unknown origin) at 3 uM by Z-lyte assay relative to control
[13] = AUC in mouse at 2 mg/kg, iv; type: ADME, organism-based; set-up: dose 2 mg/kg; conditions: in vivo
Homo sapiens [14] = species: Homo sapiens; assay: Selectivity index, ratio of IC50 for inhibition of CHK2 (unknown origin) to IC50 for inhibition of TTK (unknown origin)
[15] = target: Substance-P receptor (Homo sapiens) (UniProt P25103); assay: Inhibition of Neurokinin NK1 receptor (unknown origin) at 10 uM relative to control
[16] = target: Testis-specific serine/threonine-protein kinase 1 (Homo sapiens, UniProt Q9BXA7); assay: Inhibition of TSSK1 (unknown origin) by Z-lyte assay
[17] = target: Substance-K receptor (Homo sapiens) (UniProt P21452); assay: Inhibition of Neurokinin NK2 receptor (unknown origin) at 10 uM relative to control
[18] = Plasma protein binding in mouse; type: ADME, cell-free; conditions: read-out: PPB
Cytochrome P450 2C8 = Cytochrome P450 2C8 (Homo sapiens, UniProt P10632); assay: Time dependent inhibition of CYP2C8 in human liver microsomes; type: ADME
Cytochrome P450 2C8, sequence (P10632 whole entry): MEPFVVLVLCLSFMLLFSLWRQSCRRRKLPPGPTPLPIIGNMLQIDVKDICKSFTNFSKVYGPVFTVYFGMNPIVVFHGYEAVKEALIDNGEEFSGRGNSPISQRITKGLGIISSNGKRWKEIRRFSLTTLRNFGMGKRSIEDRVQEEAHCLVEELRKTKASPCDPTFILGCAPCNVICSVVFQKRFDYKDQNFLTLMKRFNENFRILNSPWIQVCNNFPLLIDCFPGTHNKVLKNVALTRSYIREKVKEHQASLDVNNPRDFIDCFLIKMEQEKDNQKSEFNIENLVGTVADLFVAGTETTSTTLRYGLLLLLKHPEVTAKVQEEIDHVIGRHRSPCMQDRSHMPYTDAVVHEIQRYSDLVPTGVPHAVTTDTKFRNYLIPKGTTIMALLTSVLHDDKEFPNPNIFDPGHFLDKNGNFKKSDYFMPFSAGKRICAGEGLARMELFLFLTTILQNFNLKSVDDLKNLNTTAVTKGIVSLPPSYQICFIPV

Serine/threonine-protein kinase Chk2, sequence (O96017 whole entry): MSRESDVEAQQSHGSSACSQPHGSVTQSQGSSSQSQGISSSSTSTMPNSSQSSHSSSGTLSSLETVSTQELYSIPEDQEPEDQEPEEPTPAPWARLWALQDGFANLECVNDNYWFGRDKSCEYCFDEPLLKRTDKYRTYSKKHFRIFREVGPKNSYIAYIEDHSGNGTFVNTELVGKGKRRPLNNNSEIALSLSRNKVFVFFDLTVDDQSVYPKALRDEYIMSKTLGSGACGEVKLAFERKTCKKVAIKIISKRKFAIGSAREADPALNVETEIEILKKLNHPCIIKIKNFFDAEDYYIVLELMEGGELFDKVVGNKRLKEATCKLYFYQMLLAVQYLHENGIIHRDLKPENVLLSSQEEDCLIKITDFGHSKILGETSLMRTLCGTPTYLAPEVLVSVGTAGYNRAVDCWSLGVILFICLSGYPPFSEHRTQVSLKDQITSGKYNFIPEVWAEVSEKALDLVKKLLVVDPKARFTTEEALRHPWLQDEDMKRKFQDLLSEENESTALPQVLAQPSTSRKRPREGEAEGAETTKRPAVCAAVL
Substance-P receptor (Homo sapiens), sequence (P25103 whole entry): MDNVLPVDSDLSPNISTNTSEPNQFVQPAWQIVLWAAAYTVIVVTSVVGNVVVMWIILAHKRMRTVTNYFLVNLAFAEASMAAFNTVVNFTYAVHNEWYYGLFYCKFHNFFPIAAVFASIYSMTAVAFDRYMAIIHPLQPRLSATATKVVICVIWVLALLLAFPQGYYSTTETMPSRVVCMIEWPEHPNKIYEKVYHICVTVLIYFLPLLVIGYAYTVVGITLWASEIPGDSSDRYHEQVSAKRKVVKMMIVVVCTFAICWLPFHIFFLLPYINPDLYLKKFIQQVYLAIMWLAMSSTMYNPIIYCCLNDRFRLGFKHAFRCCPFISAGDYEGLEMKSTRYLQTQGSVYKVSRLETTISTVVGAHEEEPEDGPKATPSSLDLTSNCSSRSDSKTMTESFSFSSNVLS
Substance-K receptor (Homo sapiens), sequence (P21452 whole entry): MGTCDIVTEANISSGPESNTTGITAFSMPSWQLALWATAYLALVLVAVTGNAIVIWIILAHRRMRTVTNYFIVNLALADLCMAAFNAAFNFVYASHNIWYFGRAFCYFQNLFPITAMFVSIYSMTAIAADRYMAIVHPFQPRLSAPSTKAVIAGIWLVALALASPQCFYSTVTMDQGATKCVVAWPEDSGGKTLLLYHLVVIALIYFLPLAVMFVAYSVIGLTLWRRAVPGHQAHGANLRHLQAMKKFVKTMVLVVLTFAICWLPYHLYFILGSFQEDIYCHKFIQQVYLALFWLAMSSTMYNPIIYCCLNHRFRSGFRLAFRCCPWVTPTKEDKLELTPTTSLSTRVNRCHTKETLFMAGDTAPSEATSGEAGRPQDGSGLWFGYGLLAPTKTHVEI
Muscarinic acetylcholine receptor M3 (Homo sapiens), sequence (P20309 whole entry, looked up): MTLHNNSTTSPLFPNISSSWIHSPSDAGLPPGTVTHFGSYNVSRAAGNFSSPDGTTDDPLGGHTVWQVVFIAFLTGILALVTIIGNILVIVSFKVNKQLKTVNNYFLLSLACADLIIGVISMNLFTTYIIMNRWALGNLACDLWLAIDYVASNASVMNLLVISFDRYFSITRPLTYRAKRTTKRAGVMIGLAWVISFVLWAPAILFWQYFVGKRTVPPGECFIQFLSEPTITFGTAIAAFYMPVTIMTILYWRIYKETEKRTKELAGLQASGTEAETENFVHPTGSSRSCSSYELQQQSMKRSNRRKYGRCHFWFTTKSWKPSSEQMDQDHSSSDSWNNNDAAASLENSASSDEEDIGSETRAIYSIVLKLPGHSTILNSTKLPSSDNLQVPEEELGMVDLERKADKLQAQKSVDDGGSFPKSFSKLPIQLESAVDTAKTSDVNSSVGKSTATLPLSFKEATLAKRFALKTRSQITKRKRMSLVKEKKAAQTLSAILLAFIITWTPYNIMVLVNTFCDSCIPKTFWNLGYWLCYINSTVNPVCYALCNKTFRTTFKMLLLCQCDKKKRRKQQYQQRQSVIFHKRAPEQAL
Testis-specific serine/threonine-protein kinase 1, sequence (Q9BXA7 whole entry): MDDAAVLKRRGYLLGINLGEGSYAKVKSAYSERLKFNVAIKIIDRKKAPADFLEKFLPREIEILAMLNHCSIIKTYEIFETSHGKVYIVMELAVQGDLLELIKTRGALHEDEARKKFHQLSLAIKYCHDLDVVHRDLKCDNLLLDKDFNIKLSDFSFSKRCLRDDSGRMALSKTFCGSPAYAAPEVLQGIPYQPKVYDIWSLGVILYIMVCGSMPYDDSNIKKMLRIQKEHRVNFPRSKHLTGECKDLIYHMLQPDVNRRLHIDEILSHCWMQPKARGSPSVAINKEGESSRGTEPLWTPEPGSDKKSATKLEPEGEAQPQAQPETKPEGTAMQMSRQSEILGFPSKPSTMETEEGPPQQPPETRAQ
Mitogen-activated protein kinase 8, sequence (P45983 whole entry): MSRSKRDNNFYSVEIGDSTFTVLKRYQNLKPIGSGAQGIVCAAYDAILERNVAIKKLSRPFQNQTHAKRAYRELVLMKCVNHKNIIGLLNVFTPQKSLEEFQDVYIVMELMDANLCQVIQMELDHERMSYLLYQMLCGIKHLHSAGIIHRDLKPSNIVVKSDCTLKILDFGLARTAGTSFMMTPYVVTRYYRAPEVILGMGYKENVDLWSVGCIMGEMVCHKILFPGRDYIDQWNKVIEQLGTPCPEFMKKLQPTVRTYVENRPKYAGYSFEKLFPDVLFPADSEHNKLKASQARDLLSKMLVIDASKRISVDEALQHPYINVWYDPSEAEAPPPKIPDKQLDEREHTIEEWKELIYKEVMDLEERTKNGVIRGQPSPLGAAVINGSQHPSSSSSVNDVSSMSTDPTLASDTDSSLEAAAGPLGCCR
Muscarinic acetylcholine receptor M1 (Homo sapiens), sequence (P11229 whole entry): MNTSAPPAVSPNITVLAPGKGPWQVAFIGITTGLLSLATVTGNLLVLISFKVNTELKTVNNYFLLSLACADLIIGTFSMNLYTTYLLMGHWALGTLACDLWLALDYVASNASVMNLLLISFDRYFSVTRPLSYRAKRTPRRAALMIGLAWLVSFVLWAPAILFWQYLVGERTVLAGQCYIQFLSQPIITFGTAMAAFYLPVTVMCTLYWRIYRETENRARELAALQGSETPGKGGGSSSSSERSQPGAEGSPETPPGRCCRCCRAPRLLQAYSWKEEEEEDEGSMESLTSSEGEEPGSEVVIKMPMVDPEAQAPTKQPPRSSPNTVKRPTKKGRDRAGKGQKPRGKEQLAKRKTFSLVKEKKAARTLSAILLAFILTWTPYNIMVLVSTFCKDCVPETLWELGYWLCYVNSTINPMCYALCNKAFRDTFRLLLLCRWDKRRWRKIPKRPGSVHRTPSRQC
Testis-specific serine/threonine-protein kinase 2 (Homo sapiens), sequence (Q96PF2 whole entry): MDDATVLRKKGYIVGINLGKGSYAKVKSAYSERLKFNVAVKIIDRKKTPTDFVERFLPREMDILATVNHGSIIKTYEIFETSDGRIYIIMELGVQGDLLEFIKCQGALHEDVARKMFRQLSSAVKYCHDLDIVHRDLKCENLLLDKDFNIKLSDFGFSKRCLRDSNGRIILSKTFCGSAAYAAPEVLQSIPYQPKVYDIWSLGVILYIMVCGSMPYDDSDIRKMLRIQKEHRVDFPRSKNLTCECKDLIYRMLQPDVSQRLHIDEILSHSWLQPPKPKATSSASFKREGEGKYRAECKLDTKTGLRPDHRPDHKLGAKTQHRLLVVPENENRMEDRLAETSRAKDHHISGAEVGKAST

- Ratio IC50 (Homo sapiens [1]): 76.3
- inhibition [2]: 80%
- IC50 [3]: 48 nM
- inhibition [4]: > 80%
- IC50 [5]: 74 nM
- Ratio IC50 (Homo sapiens [6]): 64
- inhibition [7]: > 80%
- Vd [8]: 0.53 L/kg
- inhibition [10]: 80%
- Ratio IC50 (Homo sapiens [11]): 433
- inhibition [12]: > 80%
- AUC [13]: 5.29 µM·h
- Ratio IC50 (Homo sapiens [14]): 182
- inhibition [15]: 80%
- IC50 [16]: 35 nM
- inhibition [17]: 80%
- fraction unbound [18]: < 0.01
- IC50 (Cytochrome P450 2C8): > 30000 nM
Structure (SMILES): CCc1cccc(CC)c1N1CCn2cc(-c3nc(Nc4ccc(N5CCC(C(=O)N6CC7(CN(C)C7)C6)CC5)cc4OC)nc4[nH]ccc34)cc2C1=O
- IC50 (CAL-51): 16 nM
- TGI [9]: >60%
